According to patent US20230110757A1, “METHODS FOR TREATING ANIMALS, FEED, DRINKING WATER, WASH WATER, PROCESSING EQUIPMENT, PACKAGING MATERIALS, AND FOOD PRODUCTS” (EVOQ NANO, INC., priority 2021, published 2023):

Tested on: E. coli, KwikStik, ATCC #51813
Test: Antibacterial efficacy test, RLU (ATP) counts post treatment
Type: cell-based
Protocol: An antibacterial efficacy test was carried out comparing an “Attostat” nanoparticle formulation (8 nm size) against silver nitrate and against the National Institute of Standards and Technology (NIST) Standard Nanocomposix 10 nm silver nanoparticles. The NIST nanoparticles are formed by a chemical reduction process that utilizes citrate as reducing and capping agent.
Relative Light Unit (RLU) counts were recorded at 12 hours and 24 hours post treatment. RLU measurements were carried out using a Hygiena SystemSURE Plus V.2 SN067503 RLU meter with Hygenia AquaSnap TOTAL ATP Water Test Cat #U143 Lot #153019. Culturing media was Hardy Diagnostics Buffered Peptone Water Lot #118272. Samples were prepared with the nanoparticle treatments and then diluted with the media to provide the tested concentrations. The test organism (Microbiologics, E. coli, KwikStik, ATCC #51813, Ref #0791 K, Lot #791-1-6) was incubated in fresh Buffered Peptone Water growth media for 24 hours prior to exposure to the nanoparticle treatments.

## O=[N+]([O-])[O-].[Ag+] [AgNO3 Silver Nitrate, silver nitrate]
0.25 ppm (mg/L)
  RLU Counts at 12 Hours Post Exposure to Nanoparticle Treatment: 80 RLU
  RLU as percentage of control at 12 Hours Post Treatment: 1.2%
  RLU Counts at 24 Hours Post Exposure to Nanoparticle Treatment: 25 RLU
  RLU as percentage of control at 24 Hours Post Treatment: 0.34%
0.5 ppm (mg/L)
  RLU Counts at 12 Hours Post Exposure to Nanoparticle Treatment: 75 RLU
  RLU as percentage of control at 12 Hours Post Treatment: 1.1%
  RLU Counts at 24 Hours Post Exposure to Nanoparticle Treatment: 46 RLU
  RLU as percentage of control at 24 Hours Post Treatment: 0.62%
1.0 ppm (mg/L)
  RLU Counts at 12 Hours Post Exposure to Nanoparticle Treatment: 84 RLU
  RLU as percentage of control at 12 Hours Post Treatment: 1.3%
  RLU Counts at 24 Hours Post Exposure to Nanoparticle Treatment: 30 RLU
  RLU as percentage of control at 24 Hours Post Treatment: 0.41%
